Laboratory results: article PMC4835877, “HM71224, a novel Bruton’s tyrosine kinase inhibitor, suppresses B cell and monocyte activation and ameliorates arthritis in a mouse model: a potential drug for rheumatoid arthritis” (Arthritis Research & Therapy, 2016)
Where two headings read alike, the source gives them in different places.

Legend:
[1] = test system: human plasmacytoid dendritic cells; assay: Cytokine production by human PDCs stimulated with CpG ODN or LPS (ELISA); type: cell-based; details: CpG ODN (TLR9 agonist), 1 μM, 48 h
Method: (§2) Human monocytes were stimulated with heat-inactivated ICs at 37 °C for 30 minutes in the presence of increasing concentrations of HM71224. Human PDCs were stimulated with lipopolysaccharide (LPS) or CpG ODN 2006 (ThermoFisher Scientific) for 48 h in the absence or presence of HM71224 (1 μM). The production of tumor necrosis factor (TNF)-α, interleukin (IL)-1β, and IL-6 was then measured using a commercial ELISA (R&D Systems). […] The levels of the indicated cytokines in the culture supernatant were then measured by ELISA at 5 h post stimulation. […] The levels of the indicated cytokines in the culture supernatant were then measured by ELISA at 48 h post stimulation.*P < 0.05, **P < 0.01, and ***P < 0.001 vs. no treatment. LPS lipopolysaccharide

BTK [2] = target: T1, BTK (Homo sapiens, UniProt Q06187); assay: Btk occupancy in Ramos cells (biotinylated probe); type: cell-based
T1 sequence (Q06187 whole entry): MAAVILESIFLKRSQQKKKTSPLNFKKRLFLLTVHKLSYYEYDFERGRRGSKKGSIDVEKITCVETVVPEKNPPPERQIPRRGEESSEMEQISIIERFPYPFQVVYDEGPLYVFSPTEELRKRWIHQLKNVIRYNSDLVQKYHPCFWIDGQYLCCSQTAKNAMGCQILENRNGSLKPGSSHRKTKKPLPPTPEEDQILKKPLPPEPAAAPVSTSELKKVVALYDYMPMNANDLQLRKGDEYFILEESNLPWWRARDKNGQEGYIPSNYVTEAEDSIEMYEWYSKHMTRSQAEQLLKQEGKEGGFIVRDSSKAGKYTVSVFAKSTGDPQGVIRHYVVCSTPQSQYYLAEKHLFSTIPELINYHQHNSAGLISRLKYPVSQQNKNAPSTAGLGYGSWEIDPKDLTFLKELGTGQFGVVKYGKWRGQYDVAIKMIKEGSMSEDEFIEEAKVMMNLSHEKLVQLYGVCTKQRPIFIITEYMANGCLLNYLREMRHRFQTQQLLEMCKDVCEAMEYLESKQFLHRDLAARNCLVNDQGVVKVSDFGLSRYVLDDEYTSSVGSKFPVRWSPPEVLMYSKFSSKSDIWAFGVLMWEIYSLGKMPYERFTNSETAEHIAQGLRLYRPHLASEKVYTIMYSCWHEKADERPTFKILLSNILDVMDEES
Method: After treatment with HM71224, cells were lysed and then incubated for 1 h with 1 μM of biotinylated probe (HM71224 derivative). The lysed cells were loaded into streptavidin-coated wells and then incubated with an anti-Btk antibody (1:1000; clone number D3H5, Cell signaling Technology, Danvers, MA, USA) for 1 h, followed by a secondary HRP-conjugated antibody (1:10000; EMD Millipore Corporation, Billerica, MA, USA) at room temperature for 1 h. After washing, 100 μL of colorimetric solution (R&D systems, Minneapolis, MN, USA) was added, and the reaction was stopped 30 minutes later by addition of 100 μL of sulfuric acid (0.2 moles/L). The plate was read with the absorbance reader at 450 nm.
To measure Btk occupancy by immunoprecipitation (IP), biotinylated HM71224 probes were preincubated with cell lysates for 1 h at 4 °C. Streptavidin-coated beads were then added, and the mixture was incubated overnight at 4 °C. Immunoblotting was then performed, and band density was measured using MultiGauge V3.0 software (FUJI FILM, Tokyo, Japan). Untreated biotinylated probes were set at 100 %.

BLK = target: T2, BLK (Homo sapiens, UniProt P51451); assay: FRET-based Z'-Lyte kinase assay; details: read-out: Biochemical Inhibition, IC50
T2 construct: purchased ThermoFisher Scientific (contract research organization)
T2 sequence (P51451 whole entry): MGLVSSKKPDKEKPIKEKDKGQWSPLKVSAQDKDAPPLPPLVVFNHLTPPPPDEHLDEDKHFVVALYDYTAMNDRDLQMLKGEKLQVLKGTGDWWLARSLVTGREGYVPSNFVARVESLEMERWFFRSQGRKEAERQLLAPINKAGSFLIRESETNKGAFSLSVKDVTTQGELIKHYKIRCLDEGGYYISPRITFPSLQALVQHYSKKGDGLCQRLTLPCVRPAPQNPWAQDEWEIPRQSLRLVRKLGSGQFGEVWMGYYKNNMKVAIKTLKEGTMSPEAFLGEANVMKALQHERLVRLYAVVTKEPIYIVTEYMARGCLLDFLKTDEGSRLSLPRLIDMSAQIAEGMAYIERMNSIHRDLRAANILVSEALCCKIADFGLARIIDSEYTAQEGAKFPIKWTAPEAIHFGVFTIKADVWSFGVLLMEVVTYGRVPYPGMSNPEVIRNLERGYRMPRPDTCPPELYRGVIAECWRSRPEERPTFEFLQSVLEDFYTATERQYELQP
From the text: (§1) To determine the biochemical selectivity of HM71224, we tested more than 85 kinases using the fluorescence resonance energy transfer (FRET) method.

JAK3 = JAK3 (Homo sapiens, UniProt P52333); assay: biochemical
JAK3, sequence (P52333 whole entry): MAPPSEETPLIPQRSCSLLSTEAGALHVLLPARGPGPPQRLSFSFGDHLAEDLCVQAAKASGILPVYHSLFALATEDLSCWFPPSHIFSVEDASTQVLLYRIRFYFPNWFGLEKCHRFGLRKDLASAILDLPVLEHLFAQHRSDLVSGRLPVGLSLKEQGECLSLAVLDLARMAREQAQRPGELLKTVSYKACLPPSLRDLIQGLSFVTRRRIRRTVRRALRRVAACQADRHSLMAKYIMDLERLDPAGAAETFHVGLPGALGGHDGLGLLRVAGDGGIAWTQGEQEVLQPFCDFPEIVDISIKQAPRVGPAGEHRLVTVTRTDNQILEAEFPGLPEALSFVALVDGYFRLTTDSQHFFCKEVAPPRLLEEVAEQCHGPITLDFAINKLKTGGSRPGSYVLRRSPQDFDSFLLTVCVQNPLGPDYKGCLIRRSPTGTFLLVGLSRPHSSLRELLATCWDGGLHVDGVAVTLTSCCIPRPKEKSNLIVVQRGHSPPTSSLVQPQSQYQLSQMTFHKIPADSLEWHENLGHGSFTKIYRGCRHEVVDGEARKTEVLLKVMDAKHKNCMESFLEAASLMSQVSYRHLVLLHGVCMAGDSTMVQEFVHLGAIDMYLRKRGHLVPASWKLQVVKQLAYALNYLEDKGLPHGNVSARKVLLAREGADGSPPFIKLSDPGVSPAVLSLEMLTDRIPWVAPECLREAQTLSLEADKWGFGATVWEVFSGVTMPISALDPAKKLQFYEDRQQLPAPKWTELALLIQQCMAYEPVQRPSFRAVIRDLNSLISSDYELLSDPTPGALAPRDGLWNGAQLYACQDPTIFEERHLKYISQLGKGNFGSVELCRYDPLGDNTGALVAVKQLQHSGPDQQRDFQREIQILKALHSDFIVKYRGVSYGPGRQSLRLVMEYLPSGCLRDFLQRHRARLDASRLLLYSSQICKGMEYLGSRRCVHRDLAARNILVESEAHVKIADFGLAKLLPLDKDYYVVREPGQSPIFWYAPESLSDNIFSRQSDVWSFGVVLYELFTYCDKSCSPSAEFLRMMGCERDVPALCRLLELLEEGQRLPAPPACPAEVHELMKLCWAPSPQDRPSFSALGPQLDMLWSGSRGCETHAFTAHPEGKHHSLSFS

EGFR [3] = target: T3, EGFR (Homo sapiens, UniProt P00533); assay: Phosphorylation of EGFR in cells; type: cell-based; design: EGFR-overexpressing epidermoid carcinoma A431 cell line; endogenous in cells; host or cells: A431; details: cellular; read-out: IC50 on inhibiting EGFR phosphorylation
T3 sequence (P00533 25-1210): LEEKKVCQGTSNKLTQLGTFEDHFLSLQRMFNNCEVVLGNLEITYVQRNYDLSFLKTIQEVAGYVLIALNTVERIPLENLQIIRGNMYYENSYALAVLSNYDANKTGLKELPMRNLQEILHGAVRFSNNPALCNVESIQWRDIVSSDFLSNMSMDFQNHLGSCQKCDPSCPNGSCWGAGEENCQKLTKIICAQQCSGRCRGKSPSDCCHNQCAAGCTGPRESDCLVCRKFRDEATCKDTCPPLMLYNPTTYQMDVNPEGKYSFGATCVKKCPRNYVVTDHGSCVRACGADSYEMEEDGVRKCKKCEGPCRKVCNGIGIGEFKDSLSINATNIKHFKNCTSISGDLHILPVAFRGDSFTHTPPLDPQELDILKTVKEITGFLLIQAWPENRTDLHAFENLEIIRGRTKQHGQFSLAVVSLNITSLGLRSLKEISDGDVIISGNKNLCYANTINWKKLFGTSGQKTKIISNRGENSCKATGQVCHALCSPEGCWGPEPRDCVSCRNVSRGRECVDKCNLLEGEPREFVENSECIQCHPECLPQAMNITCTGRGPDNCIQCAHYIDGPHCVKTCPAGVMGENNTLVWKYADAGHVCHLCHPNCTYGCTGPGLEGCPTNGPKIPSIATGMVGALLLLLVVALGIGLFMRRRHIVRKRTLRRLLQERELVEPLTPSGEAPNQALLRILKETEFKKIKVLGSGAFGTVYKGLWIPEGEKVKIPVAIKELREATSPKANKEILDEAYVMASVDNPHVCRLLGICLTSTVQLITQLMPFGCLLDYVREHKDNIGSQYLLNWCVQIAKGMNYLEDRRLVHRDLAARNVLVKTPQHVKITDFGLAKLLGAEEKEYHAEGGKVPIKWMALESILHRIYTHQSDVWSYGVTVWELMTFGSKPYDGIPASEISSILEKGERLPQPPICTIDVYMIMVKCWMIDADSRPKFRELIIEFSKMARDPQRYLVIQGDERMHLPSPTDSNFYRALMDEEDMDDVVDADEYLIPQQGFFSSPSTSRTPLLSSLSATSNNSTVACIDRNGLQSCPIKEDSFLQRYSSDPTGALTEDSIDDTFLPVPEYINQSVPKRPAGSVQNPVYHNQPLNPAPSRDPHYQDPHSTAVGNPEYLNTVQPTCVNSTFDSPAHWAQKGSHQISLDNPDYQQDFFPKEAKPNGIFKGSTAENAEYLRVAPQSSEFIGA

[4] = test system: murine bone marrow-derived macrophages; assay: Osteoclast formation from murine BMMs (TRAP staining); type: cell-based, mouse; details: M-CSF and RANKL, 4 days
[5] = test system: activated primary human B cells; assay: Surface activation marker expression by activated B cells (flow cytometry); type: cell-based; details: B-cell, anti-IgM F(ab')2 for 24 h
Method: Human PBMCs (10^6 cells/mL) were allowed to rest at 37 °C for 2 h. […] To examine changes in the expression of surface activation markers, cells were stained with anti-CD3-FITC (SK7; BD Biosciences), anti-CD19-PE (HIB19; BD Biosciences), anti-CD40-PE-Cy7 (5C3; BD Biosciences), anti-CD69-V450 (FN50; BD Biosciences), and anti-CD86-PerCP-Cy5.5 (2331 (FUN-1); BD Biosciences) antibodies.

BTK [6] = target: T1, BTK; assay: Btk occupancy in human PBMCs (biotinylated probe); type: cell-based; details: primary human cells (PBMCs), 100 nM
human CD14+ monocytes [7] = assay: Cytokine production by IC-stimulated human monocytes (ELISA); type: cell-based; details: heat-inactivated ICs, increasing concentrations
Method: as §2

CD3+ T cells = assay: T cell signaling, phospho-flow of CD3/CD28-activated PBMCs; type: cell-based, human; details: CD3- and CD28-conjugated beads
Method: For phospho-flow, B cells were activated by crosslinking their BCRs with anti-human IgM antibodies (10 μg/mL; BD Biosciences) for 10 minutes at 37 °C. Cells were then fixed with 2 % paraformaldehyde at 37 °C for 12 minutes, permeabilized, and stained with anti-CD3-FITC (SK7; BD Biosciences), anti-CD20-PerCP-Cy5.5 (H1; BD Biosciences), anti-pBtk (Y223)-Alexa647 (N35-86; BD Biosciences), anti-pPLCγ2 (Y759)-Alexa647 (K86-689.37; BD Biosciences), anti-pSTAT1 (Y701)-Alexa647 (4a; BD Biosciences), anti-pSTAT3 (Y705)-Alexa647 (4/P-STAT3; BD Biosciences), anti-pSTAT5 (Y694)-Alexa647 (47; BD Biosciences), and anti-pERK1/2 (T202/204)-Alexa647 (20A; BD Biosciences) antibodies. The cells were then washed and analyzed on an LSR II flow cytometer (BD Biosciences). Data were analyzed using FlowJo software, version 8.8 (Treestar, Ashland, OR, USA).
Figure S5. Effect of HM71224 on human T cell signaling. […] The expression level of p-STAT1, p-STAT3, p-STAT5, and p-ERK1/2 by CD3+ T cells was then measured by phospho-flow cytometry.

[8] = test system: EGFR-overexpressed A431 cells; assay: Cellular growth of EGFR-overexpressed A431 cells; type: cell-based
BTK [9] = target: T1, BTK; assay: FRET-based Z'-Lyte kinase assay; design: purchased ThermoFisher Scientific (contract research organization); details: read-out: Biochemical Inhibition, IC50
From the text: as §1

EGFR [10] = target: T3, EGFR; assay: FRET-based Z'-Lyte kinase assay; design: purchased ThermoFisher Scientific (contract research organization); details: read-out: Biochemical Inhibition, IC50
From the text: as §1

[11] = test system: phosphorylation of Btk and PLCγ2 in Ramos cells; assay: BCR signaling in anti-IgM stimulated Ramos cells (immunoblot); type: cell-based, human
Method: Ramos cells or human B cells were pretreated with the indicated concentrations of HM71224 and then stimulated with anti-IgM F(ab’)2 (Southern Biotech, Birmingham, AL, USA) for 10 minutes on ice. Cells were then lysed in RIPA buffer (Sigma-Aldrich), and the proteins were separated by SDS-PAGE (Bio-Rad Laboratories, Hercules, CA, USA), transferred onto polyvinylidene fluoride (PVDF) membranes, and immunoblotted with anti-pBtk Y223 (catalog number 5082; Cell Signaling Technology, Danvers, MA, USA), anti-pPLCγ2 Y759 (catalog number 3874; Cell Signaling Technology), anti-pPLCγ2 Y1217 (Cell Signaling Technology), anti-pERK T202/204 (197G2; Cell Signaling Technology), anti-Btk (C82B8; Cell Signal Technology), anti-PLCγ2 (catalog number 3872; Cell Signal Technology), anti-ERK1/2 (3A7; Cell Signaling Technology), and anti-GAPDH (FL-335; Santa Cruz Biotechnology, Santa Cruz, TX, USA) antibodies.
The Ramos B cell lymphoma cell line was chosen to study the inhibitory effects of HM71224 on the BCR signaling cascade as it endogenously expresses Btk [14]. […] Ramos cells were incubated with 100 nM HM71224 for 1 h. After washing, the cells were stimulated with anti-IgM F(ab’)2.

human CD14+ monocytes [12] = assay: Osteoclast formation from human CD14+ cells (TRAP staining); type: cell-based; details: Monocyte, 1000 nM
Method: Isolated human CD14 cells (1 × 10^5 cells per well) were cultured in a 96-well plate at 37 °C in alpha-minimum essential medium (MEM) supplemented with 10 % FBS and 25 ng/mL M-CSF (Sigma-Aldrich) in the presence of increasing concentrations of HM71224. RANKL (100 ng/mL, Sigma-Aldrich) was added after 3 days. The medium was replaced every 3 days. On day 9, cells were fixed with 3 % formaldehyde and stained for tartrate-resistant acid phosphatase (TRAP) expression (Sigma-Aldrich). To drive osteoclast formation from bone morrow cells, BMMs (4 × 10^4 per well) were stimulated with 30 ng/mL M-CSF and 100 ng/mL RANKL in the presence of increasing concentrations of HM71224 for 4 days. TRAP+ cells with three or more nuclei were counted as osteoclasts.

Btk molecules occupied (BTK [2]; 10 nM): approximately 90%
Btk molecules occupied (BTK [2]; 100 nM): ~100%
IC50 (BLK): 13.5 nM
IC50 (JAK3): 14.6 nM
IC50 (EGFR [3]): 800 nM
IC50 ([5]; read-out: IC50, surface expression of CD40): 4.2 nM
IC50 ([5]; read-out: IC50, surface expression of CD69): 4.2 nM
IC50 ([5]; read-out: IC50, surface expression of CD86): 7.7 nM
Btk sites occupied (BTK [6]): > 70%
GI50 ([8]; Homo sapiens, A-431, read-out: GI50, concentration to inhibit 50 % of cellular growth, EGFR-overexpressed A431 cells): 1000 nM
GI50 ([8]; read-out: GI50, concentration to inhibit 50 % of cellular growth, EGFR-overexpressed A431 cells): > 1000 nM
IC50 (BTK [9]): 1.95 nM
IC50 (EGFR [10]): 4.96 nM
SMILES: C=CC(=O)Nc1cccc(Oc2nc(Nc3ccc(N4CCN(C)CC4)cc3)nc3ccoc23)c1 [HM71224]
CpG-mediated production of TNF-α and IL-6 [1]: inhibited CpG-mediated cytokine production
Osteoclast formation from murine BMMs [4]: inhibited osteoclast formation from murine BMMs
Production of TNF-α, IL-1β, and IL-6 (human CD14+ monocytes [7]): inhibited in a dose-dependent manner
T cell receptor signaling (p-STAT1, p-STAT3 and p-STAT5) (CD3+ T cells): not affected
p-ERK1/2 in CD3+ T cells (CD3+ T cells): inhibited
Duration of inhibition of BTK phosphorylation after washout ([11]; 100 nM for 1 h, washed, then anti-IgM F(ab')2): at least 24 h
Phosphorylation of Btk and PLCγ2 ([11]; anti-IgM F(ab')2): decreased markedly
inhibition at 1 µM (human CD14+ monocytes [12]): ~50%
